One may read the Kb as the equilibrium dissociation constant of an antagonist, usually derived from a functional assay. Usually IC50 stands for the point on the concentration scale where inhibition reaches its midpoint.

Counter-ions that a name gives are not always drawn. A value given as a limit tells only on which side of the number the result lay.

The text below walks through data of patent publication US10774074B2, “2-(1-heteroarylpiperazin-4-yl)methyl-1,4-benzodioxane derivatives as alpha2C antagonists” (ORION CORPORATION, priority 2015, dated 2020).

In one test the target is T1, human alpha2C receptors (Homo sapiens, UniProt P18825).
T1 construct: host or cells: CHO cells, cotransfected with pCEP-Gα16
T1 sequence (P18825 1-462): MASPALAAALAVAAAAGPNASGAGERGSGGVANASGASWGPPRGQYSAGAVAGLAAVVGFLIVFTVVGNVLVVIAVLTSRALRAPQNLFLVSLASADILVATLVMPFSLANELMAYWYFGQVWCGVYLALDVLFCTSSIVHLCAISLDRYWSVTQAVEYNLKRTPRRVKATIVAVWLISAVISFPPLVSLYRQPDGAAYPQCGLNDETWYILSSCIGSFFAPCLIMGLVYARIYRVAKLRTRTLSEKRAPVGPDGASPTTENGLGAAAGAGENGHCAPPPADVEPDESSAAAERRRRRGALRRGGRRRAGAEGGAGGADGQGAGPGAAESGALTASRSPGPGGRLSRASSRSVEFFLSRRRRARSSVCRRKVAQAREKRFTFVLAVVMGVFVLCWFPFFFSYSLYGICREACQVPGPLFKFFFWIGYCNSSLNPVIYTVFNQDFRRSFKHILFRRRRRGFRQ
Kind of test: Determination of alpha2C antagonistic activity in vitro (FLIPR calcium assay, CHO cells). It counts as cell-based. Conditions: for Kb: Kb calculated with the Cheng-Prusoff equation from IC50, adrenaline as agonist, CHO cells, human alpha2C, read-out: Alpha 2C Adrenaline Kb; for IC50: antagonism of adrenaline stimulation, CHO cells stably transfected with human alpha2C receptor and Gα16, intracellular calcium (FLIPR), read-out: Alpha 2C Adrenaline IC50. The method, then: (§1) EXPERIMENT 1: Determination of alpha2A and alpha2C Antagonistic Activity In Vitro
(§2) Chinese hamster ovary (CHO) cells stably transfected with human alpha2A or alpha2C receptors (University of Turku, Finland) were cotransfected with the expression vector pCEP-Gα16 (Molecular Devices, CA, USA) were used in this experiment. The cells were maintained at 37° C. in a 5% CO2/95% air atmosphere. The cells were cultured in HAM F-12 medium supplemented with 10% FCS, 25 mM HEPES, 100 IU/ml penicillin, 100 µg/ml streptomycin, 500 μg/ml geneticin and 240 μg/ml hygromycin B. The cells were subcultured twice weekly with 0.25% trypsin and 1 mM EDTA. The subculture ratio was 1:5-1:20. The growth medium was changed every 2 or 3 days. All cell culture reagents were from Gibco. The day before the experiment the cells were plated into black-walled, clear bottom 384-well plates at a density of 10,000 cells/well.
(§3) The growth medium was removed and the cells were incubated with the test compounds and the FLIPR Calcium 6 Assay reagent (Molecular Devices, CA, USA) for 2 h at 37° C. in dark. The test compounds (concentrations in cells 100 pM-10 μM) were dissolved in Probenecid-Ringer consisting of 150 mM NaCl, 3 mM KCl, 1.2 mM MgCl2, 1 mM CaCl2, 5 mM glucose, 20 mM HEPES and 2.5 mM probenecid (pH 7.4 adjusted with 1.0 M NaOH). The osmolarity was adjusted to 322 milliosmoles with Osmostat® OM-6020 osmometer (DIC Kyoto Daiichi Kagagu Co. Ltd, Japan). […] All experiments were performed at 37° C. For agonism measurements the test compounds dissolved in Probenecid-Ringer were applied by FLIPR Tetra at 15 s time point. In order to determine antagonism, the cells were stimulated either with 100 nM adrenaline or noradrenaline and the test compounds were added to the cells 2 h before the experiment with the FLIPR Calcium 6 Assay reagent. […] Typically, there were four replicates at each concentration and six different dose levels. For example, if the number of plates from which results were obtained was three, 72 (4*6*3) wells were thus measured to construct dose-response relationship. The samples were excited at 485 nm and emission was detected at 525 nm with a 515 nm cut-off filter. The minimum fluorescence value subtracted from the maximum value for each well was used in the calculations. ScreenWorks version 4.0 software was used for analyzing the results. Fitting of the antagonist dose-response results was performed with the free Hill equation and the IC50 values were fitted with IDBS XE software using model 200: y=(A+(B/(1+((x/C)^D)))), where A is the curve maximum, B the curve minimum and C equals the EC50 value. D is slope factor (Hill). Kb was calculated with the Cheng-Prusoff equation Kb=A/((B/C)+1), where A is the IC50 of antagonist, B the concentration of agonist and C the EC50 of the agonist.

A further test addresses T2, human alpha2A receptors (Homo sapiens, UniProt P08913).
T2 construct: host or cells: CHO cells, cotransfected with pCEP-Gα16
T2 sequence (P08913 1-465): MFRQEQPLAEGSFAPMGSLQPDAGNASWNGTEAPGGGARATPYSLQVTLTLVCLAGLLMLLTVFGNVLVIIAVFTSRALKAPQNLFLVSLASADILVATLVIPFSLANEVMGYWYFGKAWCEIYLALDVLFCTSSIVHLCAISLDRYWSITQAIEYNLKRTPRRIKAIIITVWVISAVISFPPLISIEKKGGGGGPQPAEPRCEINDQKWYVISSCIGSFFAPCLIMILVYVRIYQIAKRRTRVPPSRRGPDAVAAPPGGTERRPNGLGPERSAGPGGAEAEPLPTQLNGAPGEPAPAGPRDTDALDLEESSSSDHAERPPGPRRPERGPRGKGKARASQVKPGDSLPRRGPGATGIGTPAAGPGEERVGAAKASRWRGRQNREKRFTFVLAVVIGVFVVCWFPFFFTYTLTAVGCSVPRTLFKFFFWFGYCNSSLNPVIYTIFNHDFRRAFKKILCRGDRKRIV
Kind of test: Determination of alpha2A antagonistic activity in vitro (FLIPR calcium assay, CHO cells). Conditions: for Kb: Kb calculated with the Cheng-Prusoff equation from IC50, adrenaline as agonist, CHO cells, human alpha2A, read-out: Alpha 2A Adrenaline Kb; for IC50: antagonism of adrenaline stimulation, CHO cells stably transfected with human alpha2A receptor and Gα16, intracellular calcium (FLIPR), read-out: Alpha 2A Adrenaline IC50. It counts as cell-based. The protocol:
as §1, §2, §3

Turning to `Cc1c(N2C(=O)CC(C)(C)C2=O)c(N2CCN(C[C@H]3COc4ccccc4O3)CC2)nn1C` [Compound of example 1, (S)-1-(3-(4-((2,3-Dihydrobenzo[b][1,4]dioxin-2-yl)methyl)piperazin-1-yl)-1,5-dimethyl-1H-pyrazol-4-yl)-3,3-dimethylpyrrolidine-2,5-dione], on human alpha2C receptors, the Kb was under 0.1 nM and the half-inhibitory concentration (IC50) was under 0.01 nM.
Regarding `Cc1c(N2C(=O)c3ccccc3C2=O)c(N2CCN(C[C@H]3COc4ccccc4O3)CC2)nn1C` [Compound of example 2, (S)-2-(3-(4-((2,3-Dihydrobenzo[b][1,4]dioxin-2-yl)methyl)piperazin-1-yl)-1,5-dimethyl-1H-pyrazol-4-yl)isoindoline-1,3-dione], the antagonist dissociation constant (Kb) on human alpha2A receptors is under 0.004 nM; on human alpha2C receptors it was under 0.1 nM. In addition, the IC50 on human alpha2A receptors was under 0.1 nM; on human alpha2C receptors, under 0.01 nM.
`Cc1nc(C#N)c(N2CCN(C[C@H]3COc4ccccc4O3)CC2)o1` [Compound of example 3, (S)-5-(4-((2,3-Dihydrobenzo[b][1,4]dioxin-2-yl)methyl)piperazin-1-yl)-2-methyloxazole-4-carbonitrile]: the Kb is over 449 nM on human alpha2A receptors and 912 nM on human alpha2C receptors. In addition, the 50% inhibitory concentration (IC50) on human alpha2A receptors is over 10000 nM; on human alpha2C receptors it was 91.9 nM.
Turning to `Cc1c(N2CCC2=O)c(N2CCN(C[C@H]3COc4ccccc4O3)CC2)nn1C` [Compound of example 4, (S)-1-(3-(4-((2,3-Dihydrobenzo[b][1,4]dioxin-2-yl)methyl)piperazin-1-yl)-1,5-dimethyl-1H-pyrazol-4-yl)azetidin-2-one], the Kb at human alpha2A receptors is 217 nM. Besides, at human alpha2C receptors, the Kb was 0.13 nM and the IC50 is 0.01 nM.
For `Cc1c(N2CCOC2=O)c(N2CCN(C[C@H]3COc4ccccc4O3)CC2)nn1C` [Compound of example 5, (S)-3-(3-(4-((2,3-Dihydrobenzo[b][1,4]dioxin-2-yl)methyl)piperazin-1-yl)-1,5-dimethyl-1H-pyrazol-4-yl)oxazolidin-2-one], on human alpha2A receptors, the antagonist dissociation constant (Kb) is 206 nM and the IC50 is 4590 nM. For the same compound, on human alpha2C receptors, the Kb was 1 nM and the concentration for half-maximal inhibition (IC50) turned out to be 0.1 nM.
Regarding `Cc1c(N2CC(C)(C)NC2=O)c(N2CCN(C[C@H]3COc4ccccc4O3)CC2)nn1C` [Compound of example 6, (S)-1-(3-(4-((2,3-Dihydrobenzo[b][1,4]dioxin-2-yl)methyl)piperazin-1-yl)-1,5-dimethyl-1H-pyrazol-4-yl)-4,4-dimethylimidazolidin-2-one], on human alpha2C receptors, the Kb was under 0.1 nM and the concentration for half-maximal inhibition (IC50) is under 0.01 nM.
The corresponding values for `Cc1c(N2CC(C)(C)N(C)C2=O)c(N2CCN(C[C@H]3COc4ccccc4O3)CC2)nn1C` [Compound of example 7, (S)-1-(3-(4-((2,3-Dihydrobenzo[b][1,4]dioxin-2-yl)methyl)piperazin-1-yl)-1,5-dimethyl-1H-pyrazol-4-yl)-3,4,4-trimethylimidazolidin-2-one] are under 0.1 nM and under 0.01 nM.
With `COCc1scnc1N1CCN(C[C@H]2COc3ccccc3O2)CC1` [Compound of example 8, (S)-4-(4-((2,3-Dihydrobenzo[b][1,4]dioxin-2-yl)methyl)piperazin-1-yl)-5-(methoxymethyl)thiazole], at human alpha2A receptors, the Kb is 88 nM and the IC50 was 1970 nM. Moreover, at human alpha2C receptors, the Kb was under 0.1 nM and the concentration for half-maximal inhibition (IC50) was under 0.01 nM.
As to `Cc1c(N2CCNC2=O)c(N2CCN(C[C@H]3COc4ccccc4O3)CC2)nn1C` [Compound of example 9, (S)-1-(3-(4-((2,3-Dihydrobenzo[b][1,4]dioxin-2-yl)methyl)piperazin-1-yl)-1,5-dimethyl-1H-pyrazol-4-yl)imidazolidin-2-one], the antagonist dissociation constant (Kb) at human alpha2A receptors was over 449 nM; at human alpha2C receptors, 0.55 nM. Besides, the IC50 on human alpha2A receptors is over 10000 nM; at human alpha2C receptors it was 0.06 nM.
In the case of `c1ccc(-n2nccc2N2CCN(C[C@H]3COc4ccccc4O3)CC2)nc1` [Compound of example 10, (S)-1-((2,3-Dihydrobenzo[b][1,4]dioxin-2-yl)methyl)-4-(1-(pyridin-2-yl)-1H-pyrazol-5-yl)piperazine], the antagonist dissociation constant (Kb) was 350 nM at human alpha2A receptors and 1.14 nM on human alpha2C receptors. In addition, the figures for the IC50 on human alpha2A receptors and on human alpha2C receptors were 7810 nM and 0.113 nM, respectively.
The like results for `COCc1c(N2CCN(C[C@H]3COc4ccccc4O3)CC2)nn(C)c1C` [Compound of example 11, (S)-1-((2,3-Dihydrobenzo[b][1,4]dioxin-2-yl)methyl)-4-(4-(methoxymethyl)-1,5-dimethyl-1H-pyrazol-3-yl)piperazine] were, in that order, 306 nM, 1.62 nM, 6810 nM and 0.165 nM.
For `CCOC(=O)c1c(N2CCN(C[C@H]3COc4ccccc4O3)CC2)nn(C)c1C` [Compound of example 12, (S)-Ethyl 3-(4-((2,3-dihydrobenzo[b][1,4]dioxin-2-yl)methyl)piperazin-1-yl)-1,5-dimethyl-1H-pyrazole-4-carboxylate], at human alpha2A receptors, the Kb is 120 nM and the half-inhibitory concentration (IC50) was 2680 nM. Further, on human alpha2C receptors, the Kb is 2.13 nM and the IC50 stood at 0.21 nM.
In the case of `Cc1c(C(C)(C)O)c(N2CCN(C[C@H]3COc4ccccc4O3)CC2)nn1C` [Compound of example 13, (S)-2-(3-(4-((2,3-Dihydrobenzo[b][1,4]dioxin-2-yl)methyl)piperazin-1-yl)-1,5-dimethyl-1H-pyrazol-4-yl)propan-2-ol], at human alpha2A receptors, the antagonist equilibrium constant (Kb) was 43 nM and the IC50 amounted to 960 nM. On human alpha2C receptors, the Kb is 2.93 nM and the half-maximal inhibitory concentration (IC50) turned out to be 0.3 nM.
For `Cc1nc(N2CCN(C[C@H]3COc4ccccc4O3)CC2)c(N2C(=O)CC(C)(C)C2=O)s1` [Compound of example 32, (S)-1-(4-(4-((2,3-Dihydrobenzo[b][1,4]dioxin-2-yl)methyl)piperazin-1-yl)-2-methylthiazol-5-yl)-3,3-dimethylpyrrolidine-2,5-dione hydrochloride], at human alpha2C receptors, the Kb is under 0.1 nM and the half-inhibitory concentration (IC50) was under 0.01 nM.
Take “(S)-4-(4-((2,3-Dihydrobenzo[b][1,4]dioxin-2-yl)methyl)piperazin-1-yl)-N-(pyridin-4-yl)-1,2,5-thiadiazol-3-amine dihydrochloride [Compound of example 35]”: at human alpha2A receptors, the Kb was 275 nM and the IC50 was determined as 6130 nM.
